Legend:
N-Akt tumors = test: Control experiments: effect of tamoxifen or AAV-Cre on N-Akt tumor growth in control mice; assay type: in vivo, mouse; details: control mice with N-Akt tumors without floxed-gene deletion (C57BL/6, or Yap fl/fl;Taz fl/fl without SB-CreERT2)
Experimental: (§1) For conditional deletion of Yap and Taz, tamoxifen was administered for 5 consecutive days, via intraperitoneal injection at a concentration of 1.6 mg/kg in corn oil. In order to activate the expression of TetON-Bcl2 or human YAP expression in Apo>hYAP^1SA mice, 0.2 mg/ml of doxycycline was diluted in filtered sterile drinking water supplemented with 2.5% sucrose and administered ad libido. Doxycycline containing water bottles were protected from light and replaced every other day.
Adeno-associated virus serotype 8 (AAV8) expressing CRE recombinase under the hepatocyte specific promoter TBG was purchased from UPenn (AAV8.TBG.PI.Cre.rBG, catalog AV-8-PV1091). Mice received 5×10^11 GC of AAV8.TBG.PI.Cre.rBG diluted in 200 ul of 1× phosphate-buffered saline (PBS) by tail vein injection.
(§2) All quantifications were performed using ImageJ software. Quantification of relative tumor area was done by measuring the tumor area (marked by HA-Akt positive cells in N-Akt model, phospho-ERK expression in Myc-Ras model or S100 expression in melanoma model) and the total area (marked by DAPI). […] We inferred absolute tumor load by multiplying the tumor area by the liver weight of each mouse (absolute tumor load (cm^3)=tumor area (cm)×liver weight (grams).

[1] = system: NRAS-mutant metastatic melanoma cells in the liver; test: NRas+/INK4a-/- melanoma liver metastases in Apo>hYAP1SA mice, doxycycline-induced hYAP1SA expression; assay type: in vivo, mouse; details: Apo>YAP1SA mice injected with 10.000 melanoma cells; 2 weeks after YAP activation by doxycycline in drinking water
Experimental: For intrahepatic seeding of tumor cells, mice were hydrodynamically injected with 10.000 mouse melanoma cells (NRas^+/INK4a^−/−) diluted in sterile minimal essential medium (MEM), adjusted to 10% (in ml) of total body weight (in grams). All injected mice were monitored daily and sacrificed in groups at appropriate time points. All experimental and control groups contained 5 to 10 mice.
as §1
as §2, with “(grams). […]” for “(grams).”

[2] = system: N-Akt tumors (intrahepatic cholangiocarcinoma); test: N-Akt intrahepatic cholangiocarcinoma in Apo>hYAP1SA mice, doxycycline-induced hYAP1SA expression in peritumoral hepatocytes; assay type: in vivo, mouse
Experimental: For intrahepatic delivery of the transposon system (Kang et al., 2011), eight to ten-week-old mice were secured and hydrodynamically injected with 1 μg pCMV/SB11, 4 μg pSBbi-puro-myrAKT-HA, 20 μg of pSBbi-puro-myc-NICD, or 10 μg of cMyc-IRES-NRas via lateral tail vein. For the expression of SB-Cre^ERT2 or inducible Bcl2, 15 μg of pSBbi-puro-Cre^ERT2 or 10 μg of pSBTetON—RH-Flag-Bcl2, respectively, were added to the plasmid mixture. All plasmids were diluted in sterile filtered 0.9% NaCl, and the total volume was adjusted to 10% (in ml) of the total body weight (in grams).
as §1, §2
We next tested whether overexpression of a constitutively active form of YAP (YAP^1SA; this is the YAP variant carrying the mutation Ser127Ala; see description hereinabove), due to mutation of the main Lats1/2 phosphorylation site, is sufficient to recapitulate the tumor regression caused by Lats1/2 deletion. We used transgenic mice that conditionally overexpressed human YAP^1SA in hepatocytes under the control of a doxycycline (Dox) inducible promoter (TetON system) and where the reverse tetracycline transactivator (rtTA) is expressed under the hepatocyte-specific ApoE promoter (hereafter Apo>hYAP^1SA)(Dong et al., 2007). Upon doxycycline feeding, Apo>hYAP^1SA mice induced hepatocyte proliferation and developed liver overgrowth as previously reported (FIG. 10A,B) (Dong et al. 2007). We then induced N-Akt tumors in Apo>hYAP^1SA mice and induced hYAP^1SA expression after 4 weeks of tumor development by adding doxycycline to their drinking water (FIG. 5A). As expected, YAP protein levels increased in doxycycline treated Apo>hYAP^1SA mice but not in non-treated Apo>hYAP^1SA mice or in doxycycline treated C57BL/6 mice (FIG. 10C). […]

liver = details: mice, feeding for 5 days with 0.2% cholic acid; cited from earlier work

CC/C(=C(\c1ccccc1)c1ccc(OCCN(C)C)cc1)c1ccccc1 [tamoxifen]
effect on tumor development, growth or total tumor volume (N-Akt tumors): not affected

C[C@H]1c2cccc(O)c2C(=O)C2=C(O)[C@]3(O)C(=O)C(C(N)=O)=C(O)[C@@H](N(C)C)[C@@H]3[C@@H](O)[C@@H]21 [doxycycline]
reduction in tumor load [1]: 98% | survival after tumor initiation ([2]; Apo>hYAP1SA mice, two weeks of doxycycline administration): up to 14 weeks | average survival longer than the control mice ([2]; treated Apo>hYAP1SA mice): 4 weeks | mice with only a few small tumor remnants ([2]; treated Apo>hYAP1SA mice, after 2 weeks of doxycycline): 5/10 | treated mice still alive ([2]; within 6 weeks of tumor initiation, when half of the control mice had died): more than 80%

C[C@H](CCC(=O)O)[C@H]1CC[C@H]2[C@@H]3[C@H](O)C[C@@H]4C[C@H](O)CC[C@]4(C)[C@H]3C[C@H](O)[C@]12C [cholic acid]
liver size increase (liver): 30%

Source: patent US20210379088A1, “CANCER REGRESSION BY INDUCING A REGENERATION-LIKE RESPONSE” (VIB VZW, priority 2018, published 2021)
